US20090214529A9, “KINESIN INHIBITORS” (TaiGen Biotechnology Co., Ltd., priority 2007, published 2009)

The molecules below were run on tumor cell (assay: Cytotoxicity assay (MTS)). Settings: 72 h; incubation for three days; read-out: IC50, tumor cell growth inhibition (MTS).
Format: cell-based
Procedure: The efficacy of a test compound in inhibiting tumor cell growth was analyzed using a MTS assay. The MTS assay is a calorimetric method for the determination of viable cells in proliferation by using a tetrazolium compound (3-(4,5-dimethylthiazol-2-yl)-5-(3-[…])-2-(4-sulfophenyl)-2H-tetrazolium, inner salt; MTS) and an electron-coupling agent (phenazine methosulfate; PMS). The MTS reagent is converted by dehydrogenase enzymes in metabolically active cells into a formazan that is soluble in a tissue culture medium.
In this assay, tumor cell suspensions (30 μl/well) were seeded into 384-well flat-bottomed tissue culture plates at an appropriate density overnight. A fresh medium (3 μl/well) containing varying concentrations of a test compound or vehicle was added to the culture followed by incubation for three days. At the end of the incubation, all plates were processed simultaneously as follows: The culture medium was aspirated, a MTS cell proliferation assay (Promega) solution (30 μl/well) was added, and the plates were incubated at 37° C. for about 2 hours. Absorbance (a parameter proportional to the cell mass) was measured at 490 nm using a Multiskan (Thermo Electron Corporation, Waltham, Mass.). Inhibition effects were expressed as corrected T/C values for each test compound according to the following equation:
T/C=(T−Blank)/(C−Blank)×100(%),
where T is the mean absorbance of the treated cells, C is the mean absorbance of the controls, and Blank is the mean absorbance of the cell free well.
`Cc1ccc(C(=O)N(CCN)C(c2nc3c(oc4ccc(F)cc43)c(=O)n2Cc2ccc(C#N)s2)C(C)C)cc1F` (stereo not drawn) [Compound 174] showed an IC50 of less than 30 µM.
`Cc1ccc(C(=O)N(CCN)C(c2nc3c(oc4ccc(C)cc43)c(=O)n2Cc2ccccc2)C(C)C)cc1` (stereo not drawn) [Compound 39] was tested, and the IC50 was less than 30 µM.
In the case of `Cc1ccc(C(=O)N(CCN)C(c2nc3c(oc4ccc(Cl)cc43)c(=O)n2Cc2ccccc2)C(C)C)cn1` (stereo not drawn) [Compound 56], the IC50 is reported as less than 30 µM.
`Cc1ccc(C(=O)N(CCN)[C@@H](c2nc3c(oc4ccc(F)cc43)c(=O)n2Cc2ccccc2)C(C)C)cc1` [Compound 191] showed an IC50 of less than 30 µM.
`Cc1ccc(C(=O)N(CCN)C(c2nc3c(oc4ccc(F)cc43)c(=O)n2Cc2ccco2)C(C)C)cc1` (stereo not drawn) [Compound 127] gave an IC50 of less than 30 µM.
In the case of `Cc1ccc(C(=O)N(CCCN)C(c2nc3c(oc4ccc(F)cc43)c(=O)n2Cc2ccc(Br)s2)C(C)C)cc1` (stereo not drawn) [Compound 70], the IC50 is reported as less than 30 µM.
`Cc1ccc(C(=O)N(CCCN)C(c2nc3c(oc4ccc(Cl)cc43)c(=O)n2Cc2cccc(F)c2)C(C)C)cc1` (stereo not drawn) [Compound 97] gave an IC50 of less than 30 µM.
Work on `Cc1ccc(C(=O)N(CCN)C(c2nc3c(oc4ccc(F)cc43)c(=O)n2Cc2cccc(Br)c2)C(C)C)cc1` (stereo not drawn) [Compound 124] yielded an IC50 of less than 30 µM.
Work on `CCC(c1nc2c(oc3ccccc32)c(=O)n1Cc1ccccc1)N(CCCN)C(=O)c1ccc(C)cc1` (stereo not drawn) [Compound 17] yielded an IC50 of less than 30 µM.
For `Cc1ccc(C(=O)N(CCN)C(c2nc3c(oc4ccc(F)cc43)c(=O)n2Cc2ccccc2)C(C)C)cc1` (stereo not drawn) [Compound 105], the IC50 was less than 30 µM.
With `Cc1ccc(C(=O)N(CCN)[C@@H](c2nc3c(oc4ccc(F)cc43)c(=O)n2Cc2ccccc2)C(C)C)c(F)c1F` [Compound 206] the IC50 was less than 30 µM.
With `Cc1ccc(C(=O)N(CCCN)C(c2nc3c(oc4ccccc43)c(=O)n2Cc2cccs2)C(C)C)cc1` (stereo not drawn) [Compound 15] the IC50 was less than 30 µM.
`Cc1ccc(C(=O)N(CCN)C(c2nc3c(oc4ccc(F)cc43)c(=O)n2Cc2cc(Br)cs2)C(C)C)cc1` (stereo not drawn) [Compound 69] showed an IC50 of less than 30 µM.
`CC(C)C(c1nc2c(oc3ccccc32)c(=O)n1Cc1ccccc1F)N(CCCN)C(=O)c1ccc(Br)cc1` (stereo not drawn) [Compound 28] showed an IC50 of less than 30 µM.
For `Cc1ccc(Cn2c([C@@H](C(C)C)N(CCN)C(=O)c3ccc(Cl)cc3)nc3c(oc4ccc(F)cc43)c2=O)cc1` [Compound 184], the IC50 was less than 30 µM.
`Cc1ccc(C(=O)N(CCN)C(c2nc3c(oc4ccccc43)c(=O)n2Cc2ccc(Cl)o2)C(C)C)cc1` (stereo not drawn) [Compound 162] was tested, and the IC50 was less than 30 µM.
`COC(=O)c1ccc(Cn2c(C(C(C)C)N(CCN)C(=O)c3ccc(C)cc3)nc3c(oc4ccc(F)cc43)c2=O)s1` (stereo not drawn) [Compound 88] gave an IC50 of less than 30 µM.
With `Cc1ccc(C(=O)N(CCC2(N)CCC2)C(c2nc3n(c(=O)c2Cc2ccccc2)Cc2ccccc2-3)C(C)C)cc1` (stereo not drawn) [Compound 153] the IC50 was less than 30 µM.
`Cc1ccc(C(=O)N(CCN)[C@@H](c2nc3c(oc4ccc(F)cc43)c(=O)n2Cc2cccs2)C2CC2)cc1` [Compound 226] showed an IC50 of less than 30 µM.
Work on `CC(C)C(c1nc2c(oc3ccc(F)cc32)c(=O)n1Cc1ccc(C#N)s1)N(CCN)C(=O)c1ccc(Cl)cc1` (stereo not drawn) [Compound 172] yielded an IC50 of less than 30 µM.
Work on `Cc1ccc(C(=O)N(CCCN)C(c2nc3c(oc4ccc(F)cc43)c(=O)n2Cc2cc(Br)cs2)C(C)C)cc1` (stereo not drawn) [Compound 73] yielded an IC50 of less than 30 µM.
`COC(=O)c1ccc(Cn2c(C(C(C)C)N(CCCN)C(=O)c3ccc(C)cc3)nc3c(oc4ccc(F)cc43)c2=O)s1` (stereo not drawn) [Compound 89] was tested, and the IC50 was less than 30 µM.
In the case of `Cc1ccc(C(=O)N(CCCN)C(c2nc3c(oc4cc(Cl)ccc43)c(=O)n2Cc2ccccc2)C(C)C)cc1` (stereo not drawn) [Compound 108], the IC50 is reported as less than 30 µM.
Molecule `Cc1ccc(C(=O)N(CCN)C(c2nc3c(oc4ccc(F)cc43)c(=O)n2Cc2ccc(C(N)=O)s2)C(C)C)cc1` (stereo not drawn) [Compound 98] has an IC50 of less than 30 µM.
`CC[C@@H](C)[C@H](c1nc2c(oc3ccc(F)cc32)c(=O)n1Cc1ccc(Br)o1)N(CCN)C(=O)c1ccc(C)cc1` [Compound 220] was tested, and the IC50 was less than 30 µM.
With `Cc1ccc(C(=O)N(CCN)[C@@H](c2nc3c(oc4ccc(F)cc43)c(=O)n2Cc2ccsc2)C(C)C)cc1F` [Compound 195] the IC50 was less than 30 µM.
For `CC(C)[C@H](c1nc2c(oc3ccc(F)cc32)c(=O)n1Cc1ccc(Cl)o1)N(CCN)C(=O)c1ccc(Br)cc1` [Compound 204], the IC50 was less than 30 µM.
For `Cc1ccc(C(=O)N(CCCN)C(c2nc3cc4ccccc4cc3c(=O)n2Cc2ccc(Cl)s2)C(C)C)cc1` (stereo not drawn) [Compound 5], the IC50 was less than 30 µM.
Molecule `Cc1ccc(C(=O)N(CCN)C(c2nc3c(oc4ccccc43)c(=O)n2Cc2ccc(Br)o2)C(C)C)cc1` (stereo not drawn) [Compound 165] has an IC50 of less than 30 µM.
For `Cc1ccc(C(=O)N(CCCN)C(c2nc3c(oc4cccc(F)c43)c(=O)n2Cc2ccccc2)C(C)C)cc1` (stereo not drawn) [Compound 61], the IC50 was less than 30 µM.
For `Cc1ccc(C(=O)N(CCN)C(c2nc3c(oc4ccc(Cl)cc43)c(=O)n2Cc2ccc(/C=C/O)s2)C(C)C)cc1` (stereo not drawn) [Compound 134], the IC50 was less than 30 µM.
For `Cc1ccc(C(=O)N(CCCN)[C@@H](c2nc3c(oc4ccc(F)cc43)c(=O)n2Cc2cc(C)cs2)C(C)C)cc1` [Compound 211], the IC50 was less than 30 µM.
`Cc1ccc(C(=O)N(CCN)[C@@H](c2nc3c(oc4ccc(F)cc43)c(=O)n2Cc2ccc(I)s2)C(C)C)cc1` [Compound 219] showed an IC50 of less than 30 µM.
For `Cc1ccc(C(=O)N(CCN)[C@@H](c2nc3c(oc4ccc(F)cc43)c(=O)n2Cc2ccc(C(F)(F)F)o2)C(C)C)cc1F` [Compound 214], the IC50 was less than 30 µM.
With `Cc1ccc(C(=O)N(CCN)C(c2nc3c(oc4ccc(Cl)cc43)c(=O)n2Cc2cc(C#N)cs2)C(C)C)cc1` (stereo not drawn) [Compound 129] the IC50 was less than 30 µM.
For `Cc1ccc(C(=O)N(CCN)C(c2nc3c(oc4ccc(Cl)cc43)c(=O)n2Cc2cc(Br)cs2)C(C)C)cc1` (stereo not drawn) [Compound 49], the IC50 was less than 30 µM.
With `CCC(c1nc2c(oc3ccc(Cl)cc32)c(=O)n1Cc1ccccc1)N(CCN)C(=O)c1ccc(C)cc1` (stereo not drawn) [Compound 32] the IC50 was less than 30 µM.
For `Cc1ccc(C(=O)N(CCN)[C@@H](c2nc3c(oc4ccc(F)cc43)c(=O)n2Cc2ccoc2)C(C)C)cc1` [Compound 196], the IC50 was less than 30 µM.
With `CCC(c1nc2c(oc3ccc(Cl)cc32)c(=O)n1Cc1ccccc1)N(CCCN)S(=O)(=O)c1ccc(C)cc1` (stereo not drawn) [Compound 33] the IC50 was less than 30 µM.
Work on `Cc1ccc(C(=O)N(CCCN)C(c2nc3c([nH]c4ccc(Br)cc43)c(=O)n2Cc2ccccc2)C(C)C)cc1` (stereo not drawn) [Compound 157] yielded an IC50 of less than 30 µM.
`CC(C)C(c1nc2c(oc3ccc(F)cc32)c(=O)n1Cc1ccccc1)N(CCN)C(=O)c1ccc(Cl)cc1` (stereo not drawn) [Compound 64] showed an IC50 of less than 30 µM.
Molecule `Cc1ccc(C(=O)N(CCCN)C(c2nc3c(oc4cc(F)ccc43)c(=O)n2Cc2ccccc2)C(C)C)cc1` (stereo not drawn) [Compound 106] has an IC50 of less than 30 µM.
`Cc1ccc(C(=O)N(CCCN)C(c2nc3c(oc4ccc(F)cc43)c(=O)n2Cc2ccc(Br)o2)C(C)C)cc1` (stereo not drawn) [Compound 82] gave an IC50 of less than 30 µM.
`Cc1ccc(C(=O)N(CCN)[C@@H](c2nc3c(oc4ccc(F)cc43)c(=O)n2Cc2ccc(Br)s2)C(C)C)c(F)c1F` [Compound 209] showed an IC50 of less than 30 µM.
Work on `Cc1ccc(C(=O)N(CCN)[C@@H](c2nc3c(oc4ccc(F)cc43)c(=O)n2Cc2cc(C)cs2)C(C)C)cc1` [Compound 179] yielded an IC50 of less than 30 µM.
In the case of `Cc1ccc(CN(CCCN)C(c2nc3cc4ccccc4cc3c(=O)n2Cc2ccccc2)C(C)C)cc1` (stereo not drawn) [Compound 7], the IC50 is reported as less than 30 µM.
`Cc1ccc(C(=O)N(CCN)C(c2nc3c(oc4ccc(Cl)cc43)c(=O)n2Cc2ccc(C#N)s2)C(C)C)cc1` (stereo not drawn) [Compound 48] showed an IC50 of less than 30 µM.
`Cc1ccc(C(=O)N(CCN)C(c2nc3c(oc4ccccc43)c(=O)n2Cc2ccccc2)C(C)C)cc1` (stereo not drawn) [Compound 25] was tested, and the IC50 was less than 30 µM.
